Measured values published in US11357786B2, “Synthetic disugar hydrocarbons as natural analogs to control microbial behaviors” (Syracuse University, priority 2014, dated 2022).
“Also recorded” adds a separate entry of the source. Where two headings read alike, the source gives them in different places.

Assays:
[1] = test system: nonswarming P. aeruginosa mutant rhlA; assay: Swarming motility of nonswarming rhlA mutant on soft agar (reactivation / agonist assay); format: cell-based, Pseudomonas aeruginosa; settings: for Swarming motility of rhlA mutant: 85 μM in soft agar (0.5%), 24 h
Outline: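 rhlA transposon mutant of PAO1 (3 μl, OD600 0.4–0.6) inoculated on M8 soft agar (0.2% glucose, 0.5% casamino acids, 1 mM MgSO4, 0.5% agar) with test compound to find swarming agonists. Incubated 12 h at 37 °C plus 12 h at room temperature; swarm area measured by weighing paper cut-outs of imaged swarms.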

PAO1-GFP = assay: microbe, parasite or virus in culture; format: cell-based, Pseudomonas aeruginosa
Description: (§1) A crystal violet (CV) assay was used to measure the amount of PAO1 biofilm formed after 24 h of bacterial inoculation. The fluorescence of green fluorescent proteins (GFP) expressed by PAO1-GFP was measured to directly quantify bacterial adhesion on polystyrene black 96 well plates with and without maltose derivatives after 2 h of bacterial inoculation. To evaluate the potential of maltose derivatives as both anti-biofilm and anti-adhesion agents, they were compared to a brominated furanone (BF8) known to inhibit biofilm formation, and two generic surfactants, sodium dodecyl sulfate (SDS) and tetra (ethylene glycol) monododecyl ether (C12EG4OH). […] P. aeruginosa strain PAO1-EGFP that constitutively producing green fluorescent protein was allowed to form biofilm on sterile steel coupons.
Overnight culture of PAO1-GFP was subcultured to an OD600 of 0.01 into the 95:5 M9+:Lb medium. Subculture was allowed to reach the OD600 of 0.1 in a rotary shaker at 250 rpm and 37° C. 200 μL of the subculture was then transferred to the wells of black microtiter plate with and without (control) maltose derivatives. This black 96 well plate was then incubated in a shaker at 37° C. for 2 h. After 2 h, bacterial culture from the plate was discarded and each well was washed once with saline water (0.85 w/v % aqueous NaCl solution). Fresh 95:5 M9+:Lb medium was added to the black 96 well plate and fluorescence of the surface adhered bacteria was measured by Synergy 2 multi-mode microplate reader with Gen5 data analysis software at an excitation wavelength of 500 nm and an emission wavelength of 540 nm. Background signal from 95:5 M9+:Lb medium was eliminated from all the samples.

PAO1 biofilm [2] = assay: Crystal violet dye based biofilm inhibition assay, maltose derivatives (Example 1); format: cell-based, Pseudomonas aeruginosa; settings: for Inhibition of PAO1 biofilm: 110 μM, 24 h, CV assay; for IC50: CV dye based assay
Description: as §1
Inhibitory effect of all the maltose hydrocarbons on P. aeruginosa biofilm formation was determined by crystal violet dye based biofilm inhibition assays. Overnight culture of wild type P. aeruginosa (PAO1) was sub cultured to an OD600 of 0.01 into the 95:5 M9+:Lb medium. 200 μL of the sub culture was aliquoted into the wells of 96 well polystyrene microtiter plate when it reached the OD600 of 0.1. Predetermined concentrations of the test compounds were then added to the respective wells containing sub culture. Sample plates were wrapped in GLAD Press n′ Seal® followed by incubation under stationary conditions for 24 h at 37° C. After incubation the media was discarded and the plates were washed with water and dried for 1 h at 37° C. The sample plates were stained with 200 μL of 0.1% aqueous solution of crystal violet (CV) and followed by incubation at ambient temperature for 20 min. The CV stain was then discarded and the plates were washed with water. The remaining biofilm adhered stain was re-solubilized with 200 μL of 30% acetic acid. After the stain was dissolved (15 minutes), 100 μL of the solubilized CV was transferred from each well into the corresponding wells of a new polystyrene microtiter dish. Biofilm inhibition was quantified by measuring the OD600 of each well in which a negative control lane wherein no biofilm was formed served as a background and was subtracted out. The percent inhibition was calculated by the comparison of the OD600 for biofilm grown in the absence of compound (control) versus biofilm grown in the presence of compound under identical conditions.
(§2) Predetermined amounts maltose derivatives stock solution was added to the 200 μL bacterial culture in 96 well plate so that the final concentration of the agent reaches the desired values of 1, 5, 10, 20, 40, 85, 113, 140 μM. Biofilm inhibition and dispersion assay was carried as described previously.

24 h old PAO1 biofilm = assay: Crystal violet biofilm dispersion assay, maltose derivatives (Example 1); format: cell-based, Pseudomonas aeruginosa; settings: for DC50: 24 h old biofilm, read-out: Biofilm dispersion DC50 (half-maximal dispersion)
Description: Chemical dispersion of already formed biofilm is often more relevant to medical application, and more challenging than biofilm inhibition assays, for which the agents are introduced at the onset of an experiment. We screened the ability of maltose derivatives at 110 μM to disperse 24 h old biofilm.
PAO1 was allowed to grow for 24 h at 37° C. After 24 h, bacterial culture was pipetted out and replaced with 200 μL of 110 μM maltose hydrocarbons and sterile water (control). After 1 h treatment with maltose hydrocarbons, biofilm was fixed and quantified using crystal violet dye as described above. The amount of dispersed biofilm was determined via comparison of the amount of biofilm at 24 h in the presence of maltose hydrocarbons versus the amount of biofilm in the “no compound” positive control at 24 h (wells with water treatment).
as §2

[3] = test system: Pseudomonas aeruginosa strain PAO1-BAA-47; assay: Mouse P. aeruginosa pneumonia model; format: in vivo; settings: SP-A/D KO mice
PAO1 biofilm [4] = assay: Crystal violet based static biofilm inhibition assay, DSHs in LB media (Examples 2 and 4); format: cell-based, Pseudomonas aeruginosa
Outline: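 PAO1 subculture (OD600 ~0.1) was grown statically in LB at 37° C for 24 h with or without DSHs (screened at 160 μM). Surface-attached biofilm was then stained with 0.1% crystal violet, solubilised in 30% AcOH and read at 600 nm. Values are the mean of 4 wells.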

wild type PAO1 = assay: Swarming motility of wild type PAO1 on soft agar (antagonist assay); format: cell-based, Pseudomonas aeruginosa
Outline: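 Wild-type PAO1 culture (OD600 ~0.4–0.6, 3 μl) spotted on M8 swarm agar with 0.2% glucose, 0.5% casamino acids, 1 mM MgSO4 and 0.5% agar. Plates incubated 12 h at 37 °C then 12 h at room temperature; swarm area measured by cutting and weighing printed plate images.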

PAO1-EGFP = assay: Fluorescence adhesion assay on polystyrene, DSHs (Examples 2 and 4); format: cell-based, Pseudomonas aeruginosa; settings: 160 μM
Description: The ability of DSHs was tested to inhibit Pseudomonas aeruginosa adhesion, biofilm and to disperse pre-formed biofilm. To quantify the amount of PAO1/EGFP attached on the surface of micro titer plates with or without the synthesized DSHs, fluorescence emitted by green fluorescent proteins (GFP) was quantified (see supporting info for details). Crystal violet (CV) based static biofilm assay (see supporting info) was used to screen the anti-biofilm potencies of all synthesized agents. Both surface attached (SA) (FIG. 17) and total (SA+air-liquid interface) biofilm of P. aeruginosa was quantified. […] CV assays were also used to quantify the amount of P. aeruginosa biofilm remaining after dispersion experiments (FIG. 19). Initially, all agents were screen for anti-biofilm activities (both inhibition and dispersion) at 160 μM. […]
The effect that DSHs have on the adhesion of PAO1-EGFP on polystyrene surface (microtiter plate) was also examined. […] After 24-hours, the fluorescent signal obtained from surface adhered PAO1-EGFP was measured. Percent reduction in fluorescence was calculated by comparing fluorescent signal from PAO1-EGFP grown in LB-media with the signal from wells that had DSHs (FIG. 29A). […] After 24 hours, the surface attached biofilms adhering to the bottom of the wells were stained with crystal-violet dye and the biofilm was quantified by measuring absorbance at 600 nm (OD600). […]

Description for Solubility in water: Stock solution of disaccharide hydrocarbons (DSHs). Stock solution (˜11.5 mM) of all synthesized and commercially available DSHs were prepared in autoclaved water and further sterilized by filtering through cellulose acetate syringe filter (0.2 μm pore size, GVS filter technology) into sterilized vials. The vials containing sterilized DSHs stocks were capped and stored at −20° C. and thawed prior to each use. Appropriate volume of sterile water was added to positive controls (no agents) in all assays to eliminate the effect of water. Stock solution of DβL (7), SFβL (15) and 2-ODαC (17) were prepared in sterile water and 200 proof EtOH in 90:10 ratio. For positive controls involving DβL (7), SFβL (15) and 2-ODαC (17) appropriate volumes of 90:10, H2O:EtOH was added.

12-hydroxy decyl β-maltose [12-HODeβM]
Swarming motility of rhlA mutant [1]: did not exhibit any significant activation of swarming
Inhibition of PAO1-EGFP adhesion on polystyrene (PAO1-GFP; 85 μM, 2 h): about 7%
Inhibition of PAO1 biofilm (PAO1 biofilm [2]): about 30%
Inhibition of PAO1 biofilm (PAO1 biofilm [2]; listed as HODeβM): 32%

CC1=C(Br)/C(=C/Br)OC1=O [BF8]
Inhibition of PAO1 adhesion on polystyrene (PAO1-GFP; 100 μM): showed no inhibition; also recorded: does not inhibit the adhesion
Inhibition of PAO1 biofilm (PAO1 biofilm [2]): about 35%

O=C(c1ccccc1)c1ccc(COCCCCCCCCCCO[C@@H]2O[C@H](CO)[C@@H](O[C@H]3O[C@H](CO)[C@@H](O)[C@H](O)[C@H]3O)[C@H](O)[C@H]2O)cc1 [BPDeβM, benzophenonyl decyl β-maltoside]
Swarming motility of rhlA mutant [1]: swarming motility with without well-defined tendrils
DC50 (24 h old PAO1 biofilm): 31 µM
IC50 (PAO1 biofilm [2]): 22.5 µM

CCCCCCCCCCCCO[C@@H]1O[C@H](CO)[C@@H](O[C@H]2O[C@H](CO)[C@@H](O)[C@H](O)[C@H]2O)[C@H](O)[C@H]1O [DM, Dodecyl Maltoside]
CFU number in the lung ([3]; 50 μl of 170 μM intratracheal 24 h after infection, sacrifice 24 h later): significantly decreased CFU number in the lung
Lung inflammation (histology, H&E) ([3]; 50 μl of 170 μM intratracheal): improved the lung inflammation

CCCCCCCCCCCC[N+](C)(C)C.[Cl-] [DTAC, dodecyl trimethyl ammonium chloride, reference compound]
Reactivation of swarming motility of rhlA mutant ([1]; concentration not given): did not promote or reactivate
Anti-biofilm activity (dispersion) (24 h old PAO1 biofilm; concentration not given): did not show any anti-biofilm activities
Anti-biofilm activity (inhibition) (PAO1 biofilm [2]; concentration not given): did not show any anti-biofilm activities

CCCCCCCCCCCCO[C@@H]1O[C@@H](C)[C@H](O)[C@@H](O)[C@H]1O [DαR (9), dodecyl-α-rhamnoside]
Swarming motility of rhlA mutant [1]: no apparent effect on rhlA
Inhibition of PAO1 biofilm formation (surface attached) (PAO1 biofilm [4]; 160 μM, 24 h, LB media, listed as 8: DαR, 160 µM): poor anti-biofilm activity
Anti-biofilm activity (biofilm inhibition) (PAO1 biofilm [4]; concentration not given): weak anti-biofilm activity
Swarming motility of wild type PAO1 (wild type PAO1; 85 μM in soft agar, 24 h): inhibited the swarming motility of wild type PAO1
Effect on PAO1 swarming (wild type PAO1; concentration not given): PAO1 swarming inhibitors
Adhesion inhibition of PAO1-EGFP on polystyrene (PAO1-EGFP): 63%

CC(C)CCCC(C)CCCC(C)CCO[C@@H]1O[C@H](CO)[C@@H](O[C@@H]2O[C@H](CO)[C@H](O)[C@H](O)[C@H]2O)[C@H](O)[C@H]1O (stereo partly drawn) [SFβL (15), saturated famesyl-β-lactoside]
Solubility in water (Solubility in water): poor water-solubility
Solubility in water (Solubility in water; listed as 15: SFβL): poor solubility in water; also recorded: not soluble in either water or in water/EtOH mixture

benzyl dodecyl β-maltoside [BDβM]
Swarming motility of rhlA mutant [1]: swarming motility with without well-defined tendrils
DC50 (24 h old PAO1 biofilm): 32 µM
IC50 (PAO1 biofilm [2]): 27.5 µM
